In ChEMBL document CHEMBL1201862, “PubChem BioAssay data set” (2004):
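Step 1: Grow cells in 96-well plates. Step 2: Expose to compound for 48 hours at 5 concentrations. Step 3: Interpolate endpoints linearly; if unreached, use highest concentration. Abbreviation: GI50, concentration required for 50% inhibition of growth.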 The source made the active and inactive calls. Rule as the data show it: active = GI50 up to about 1.1 µM and inactive = higher.

How the values were obtained:
Assay in all cases: NCI tumour cell line growth inhibition, 48 h
SF-295 = system: SF-295
IGROV-1 = system: IGROV-1
CAKI-1 = system: CAKI-1
SK-MEL-2 = system: SK-MEL-2
SNB-19 = system: SNB-19
A498 = system: A498
MDA-MB-435 = system: MDA-MB-435
HCT-116 = system: HCT-116
MOLT-4 = system: MOLT-4
UACC-62 = system: UACC-62
DU-145 = system: DU-145
MDA-MB-231 = system: MDA-MB-231
K562 = system: K562
786-0 = system: 786-0
OVCAR-5 = system: OVCAR-5
A549 = system: A549
NCI-H23 = system: NCI-H23
UACC-257 = system: UACC-257
SR = system: SR
COLO 205 = system: COLO 205
SN12C = system: SN12C
SW-620 = system: SW-620
SK-MEL-28 = system: SK-MEL-28
KM12 = system: KM12
OVCAR-4 = system: OVCAR-4
RPMI-8226 = system: RPMI-8226
ACHN = system: ACHN
NCI-H460 = system: NCI-H460
HT-29 = system: HT-29
TK-10 = system: TK-10
M14 = system: M14
OVCAR-3 = system: OVCAR-3
HOP-62 = system: HOP-62
SF-268 = system: SF-268
Malme-3M = system: Malme-3M
SNB-75 = system: SNB-75
NCI/ADR-RES = system: NCI/ADR-RES
HL-60 = system: HL-60
BT-549 = system: BT-549
U-251 = system: U-251
SF-539 = system: SF-539
NCI-H522 = system: NCI-H522
MDA-N = system: MDA-N
LOX IMVI = system: LOX IMVI
SK-MEL-5 = system: SK-MEL-5
PC-3 = system: PC-3
OVCAR-8 = system: OVCAR-8
MCF7 = system: MCF7
HCC 2998 = system: HCC 2998
SK-OV-3 = system: SK-OV-3
CCRF-CEM = system: CCRF-CEM
UO-31 = system: UO-31
EKVX = system: EKVX
HCT-15 = system: HCT-15

Question: Which results are given for `COC(=O)c1cc(S(=O)(=O)NC2=NNC(C)CN2)c(S)cc1Cl` (centres undefined)?
Answer: GI50 (SF-295): 54.3 µM (inactive); GI50 (IGROV-1): 29.6 µM (inactive); GI50 (CAKI-1): > 100 µM (inactive); GI50 (SK-MEL-2): 26 µM (inactive); GI50 (SNB-19): 85.1 µM (inactive); GI50 (A498): 34.5 µM (inactive); GI50 (MDA-MB-435): 40.3 µM (inactive); GI50 (HCT-116): 30.6 µM (inactive); GI50 (MOLT-4): 77.3 µM (inactive); GI50 (UACC-62): 47 µM (inactive); GI50 (DU-145): 78.9 µM (inactive); GI50 (MDA-MB-231): > 100 µM (inactive); GI50 (K562): 47.1 µM (inactive); GI50 (786-0): 56.1 µM (inactive); GI50 (OVCAR-5): 65.3 µM (inactive); GI50 (A549): 30.1 µM (inactive); GI50 (NCI-H23): 44.8 µM (inactive); GI50 (UACC-257): > 100 µM (inactive); GI50 (SR): 37.5 µM (inactive); GI50 (COLO 205): 52.7 µM (inactive); GI50 (SN12C): > 100 µM (inactive); GI50 (SW-620): 42.3 µM (inactive); GI50 (SK-MEL-28): 36.7 µM (inactive); GI50 (KM12): 40.4 µM (inactive); GI50 (OVCAR-4): 33.9 µM (inactive); GI50 (RPMI-8226): 31.2 µM (inactive); GI50 (ACHN): > 100 µM (inactive); GI50 (NCI-H460): 44.8 µM (inactive); GI50 (HT-29): 42.7 µM (inactive); GI50 (TK-10): > 100 µM (inactive); GI50 (M14): 31.5 µM (inactive); GI50 (OVCAR-3): 38.3 µM (inactive); GI50 (HOP-62): > 100 µM (inactive); GI50 (SF-268): 13.5 µM (inactive); GI50 (Malme-3M): 24 µM (inactive); GI50 (SNB-75): 24.7 µM (inactive); GI50 (NCI/ADR-RES): 39.8 µM (inactive); GI50 (HL-60): > 100 µM (inactive); GI50 (BT-549): > 100 µM (inactive); GI50 (U-251): 37.4 µM (inactive); GI50 (SF-539): 40.5 µM (inactive); GI50 (NCI-H522): 19.5 µM (inactive); GI50 (MDA-N): 35.3 µM (inactive); GI50 (LOX IMVI): 37.5 µM (inactive); GI50 (SK-MEL-5): 26.4 µM (inactive); GI50 (PC-3): 42.8 µM (inactive); GI50 (OVCAR-8): 34.8 µM (inactive); GI50 (MCF7): 42 µM (inactive); GI50 (HCC 2998): 42.3 µM (inactive); GI50 (SK-OV-3): > 100 µM (inactive); GI50 (CCRF-CEM): 84.1 µM (inactive); GI50 (UO-31): 99.3 µM (inactive); GI50 (EKVX): 90.2 µM (inactive); GI50 (HCT-15): 37.8 µM
